Measured values taken from patent publication US9126060B2, “Cosmetic use of geranylgeranyl-2-propanol” (SEDERMA, priority 2010, dated 2015).

Key:
human melanocytes = experiment: Melanin content of human melanocytes; format: cell-based; conditions: 0.03%; positive control
Description: (§1) Principle: Human melanocytes are seeded and placed in contact with the GGP for 5 days. After incubation, the residual tyrosinase activity and total melanin content were measured in cell homogenates, and then divided by the number of cells (melanin) or to the protein amount (tyrosinase).

tyrosinase = biological target: T1, tyrosinase (Homo sapiens, UniProt P14679); experiment: Residual tyrosinase activity in human melanocytes; format: cell-based; conditions: 0.03%; positive control
T1 construct: endogenous in cells; host or cells: human melanocytes
T1 sequence (P14679 19-529): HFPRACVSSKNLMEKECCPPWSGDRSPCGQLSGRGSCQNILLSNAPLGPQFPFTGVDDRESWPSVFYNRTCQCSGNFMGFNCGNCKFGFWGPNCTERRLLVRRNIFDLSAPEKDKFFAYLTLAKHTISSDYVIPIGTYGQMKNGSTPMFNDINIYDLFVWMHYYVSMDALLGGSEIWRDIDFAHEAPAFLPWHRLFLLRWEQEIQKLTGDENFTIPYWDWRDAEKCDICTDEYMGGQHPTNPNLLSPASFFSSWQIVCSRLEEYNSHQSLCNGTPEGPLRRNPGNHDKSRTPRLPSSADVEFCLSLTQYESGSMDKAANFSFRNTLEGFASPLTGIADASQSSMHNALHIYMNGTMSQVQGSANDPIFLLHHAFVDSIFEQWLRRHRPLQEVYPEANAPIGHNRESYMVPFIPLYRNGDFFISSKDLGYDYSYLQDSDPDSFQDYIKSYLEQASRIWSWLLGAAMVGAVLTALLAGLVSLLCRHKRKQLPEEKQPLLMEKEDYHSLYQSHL
Description: as §1

human dermal fibroblasts = experiment: Senescence associated β-galactosidase activity in fibroblasts after oxidising stress (FDG fluorimetry); format: cell-based; conditions: 120 ppm; positive control
Description: Principle: Proliferative human dermal fibroblasts were contacted or not with the GGP for 72 hours in a growth medium. After this first incubation, the cells were subjected for 5 days to an oxidative stress daily, one hour each, in a basic medium, common to all cultures. This stress is known to create a SIPS and to induce a strong increase in β-galactosidase activity in the stressed culture compared to an unstressed culture. Between two stress cells are returned to the growth medium with or without the substance tested. After the fifth stress, β-galactosidase activity is evaluated.
Evaluation of β-galactosidase activity is done after fixing the layers. They are put in contact with a substrate of β-galactosidase nonfluorescent FDG (fluorescein di-β-galactopyranoside), which will release a fluorescent compound upon hydrolysis by β-galactosidase. The emitted fluorescence is quantified in a fluorometer. It will increase with the amount of senescent cells present in culture. The relative activity of β-galactosidase thus found is 2974+/−957 UFA/million cells in a proliferative culture and increases by a factor 5 (p<0.01) in a culture little to not proliferative.

presenescent fibroblasts = experiment: Mitochondrial membrane potential of presenescent fibroblasts (dye ratio λ520/λ590); format: cell-based; conditions: 120 ppm
From the text: It is possible to measure the membrane potential through a specific membrane dye. Depending on the level of the membrane potential, this dye is rather present as monomer (emission fluorescence at 520 nm) or rather in the multimetric form (fluorescence emission at 590 nm). High membrane potential promotes a multimetric form.
The ratio λ520/λ590 varies inversely with the membrane potential. The lower the ratio is, the higher the membrane potential is. The increase in the ratio thus reflects a decrease in membrane potential. The ratio λ520/λ590 for young and proliferating cells is 2.97+/−0.17.
[…] After this period, the membrane potential of half of the cultures was measured.
The other half of the cultures underwent an oxidative stress (hydrogen peroxide) before measuring their membrane potential.

fibroblasts (FHN) = experiment: Intracellular peroxide level (DCFH-DA probe) in fibroblasts after SIPS; format: cell-based, human; conditions: 120 ppm
Description: Principle: Fibroblasts at confluence contacted or not with the GGP for several days, are subjected to oxidative stress by hydrogen peroxide in the presence or absence of the GGP. This stress is intended to induce premature senescence in cells.
After this initial stress, the cells were detached from the support and returned to culture at low density until confluence. They are then contacted or not with the compound of the invention for 24 hours. At this stage, each set of cultures (with or without the tested compounds) is divided into 2 lots. A first batch (not stressed) is evaluated directly for its concentration of intracellular peroxides (using the probe DCFH-DA). Simultaneously, the other batch (stressed) undergoes a second stress by hydrogen peroxide (weaker than the first) just before being evaluated in the same way regarding the concentration of intracellular peroxides.
The amount of fluorescence measured with this probe is directly proportional to the amount of peroxides present in the cells.

[1] = ORAC test (Oxygen-Radical Absorbance Capacity): fluorescein degradation by peroxyl radicals; format: biochemical; conditions: positive control, 10μ
From the text: Principle: the ORAC test (“Oxygen-Radical Absorbance Capacity”) measures degradation by the oxidative way of a fluorescent molecule (fluorescein). Degradation of fluorescein by peroxyl radicals generated by AAPH (2,2′-azobis (2-amidinopropane) dichloride) induces a decrease in fluorescence measured by a spectrofluorometer during a degradation kinetic.
An antioxidant protects this fluorescein against this radical degradation. The decrease in fluorescence will be smaller and slower in the presence of the antioxidant than in its absence. The comparison between the parameters of the two kinetics makes it possible to calculate a percentage of protection against free radical degradation.

collagen I = experiment: Collagen I synthesis in presenescent fibroblasts (immunofluorescence, image analysis); format: cell-based, human; conditions: 10^−6%; positive control
Description: Principle: The collagen I synthesis was monitored in pre-senescent human dermal fibroblasts. These cells were cultured for 11 days with the GGP in a growth medium. Following this incubation, the cell layers were fixed and labeled by immunofluorescence, to visualize the network of collagen I and to quantify by image analysis on photographs. In parallel, quantification was performed on proliferating cells.

hyaluronic acid = experiment: Hyaluronic acid synthesis in human fibroblasts; format: cell-based; conditions: 10^−6%; positive control
Description: Principle: Human dermal fibroblasts were grown in plate for 24 hours. The cells are then placed in contact or not with GGP for 24 hours. Culture supernatants were collected and assayed for the amount of hyaluronic acid (HA) is then divided by the number of cells present on the layer. TGF-β1 is used as a positive control.

[2] = SIPS fibroblasts subjected to a second oxidant stress

For OC[C@H]1O[C@@H](Oc2ccc(O)cc2)[C@H](O)[C@@H](O)[C@@H]1O [Arbutine, reference compound], the “Change (%) of melanin content vs control” value (human melanocytes) was −40% and the “Change (%) of tyrosinase activity vs control” value (tyrosinase) was −33%.

For Cc1c(C)c2c(c(C)c1O)CCC(C)(C(=O)O)O2 (stereo not drawn) [Trolox, reference compound], the “Change with regard to control (β-galactosidase)” value (human dermal fibroblasts) was “Positive control: Trolox 120 ppm = −45% (p < 0.05)”, the “% of protection of the respiration potential” value (presenescent fibroblasts; no stress) was “+44%; nsd” and the “ΔΨ loss with regard to non stressed young cells” value (presenescent fibroblasts; one week, no stress) was 0.80 +/− 0.52. The “Improvement of the respiration potential” value (presenescent fibroblasts; with oxidative stress) was “+43%; p < 0.05”, the “ΔΨ loss with regard to non stressed young cells” value (presenescent fibroblasts; with oxidative stress (hydrogen peroxide)) was 3.18 +/− 1.16 and the “Change with regard to non stressed young cells” value (presenescent fibroblasts; with oxidative stress, control −100%) was −57%. For the same molecule, the “% Change/Control of endogen peroxides” value (fibroblasts (FHN); [2]) was −85%; p < 0.01, the Endogen peroxides (fibroblasts (FHN); [2]) was 158 +/− 7 UFA/million of cells and the “% Change/Control of endogen peroxides” value (fibroblasts (FHN); after SIPS, not stressed again) was −43%; p < 0.01. For the same molecule, the Endogen peroxides (fibroblasts (FHN); after SIPS, not stressed again) was 57.5 +/− 3.8 UFA/million of cells and the “% of protection” value [1] was “Positive control = Trolox 10μ = 94% (p < 0.01)”.

In the case of “TGF-β: TGF-β1 is used as a positive control [reference compound]”, the “collagen I synthesis, factor vs control” value (collagen I) is reported as “Positive control: TGF-β at 10^−6%: ×8.3 times” and the “% of change of hyaluronic acid vs control” value (hyaluronic acid) is reported as “Positive control: TGF-β1 à 10^−6%: +206% (p < 0.01)”.
